Tested on: MDA-MB-175VII
Test: Cell viability assay (CellTiter Glo), MDA-MB-175VII
Assay type: cell-based
Conditions: Homo sapiens; MDA MB 175VII cells, 72 hours, CellTiter Glo; read-out: IC50, cell viability, MDA MB 175VII
Procedure: Cells were treated with compounds, and cell viability was measured as a metric of kinase inhibition.
The Ba/F3 cell line is IL-3-dependent mouse cell line derived from the C3H mouse strain. Ba/F3 cell lines were engineered to express human ERBB2 or EGFR kinases, rendering the cells IL-3 independent. The lines were generated via retroviral transduction utilizing a Moloney murine leukemia virus (MMLV) promoter, and constructs are stably integrated into the cell genome. The sequences of the ERBB2 and EGFR genes used were NCBI Reference Sequences NM_004448.3 and NM_005228.3, respectively.
Similarly, Ba/F3 cell lines engineered to express EGFR, ERBB2, or ERBB2 mutants were grown, harvested, counted and seeded at 3000 cells per well in 96-well plates. A subset of wells contained media only (low control, “LC”).
Table B1 provides the growth media and number of cells seeded per well for the each cell line.
Plates were placed in a 37° C., 5% CO2 incubator for 72 hours. Plates were then removed from the incubator and equilibrated for 15 minutes at room temperature. 40 μl of CellTiter Glo reagent (Promega) was added to measure the relative level of metabolically active cells by quantifying intracellular ATP concentrations. Plates were incubated for 30 minutes at room temperature, and luminescence was measured. Percent viability was normalized to a vehicle control only using the following formula: % viability=100×(Lumsample−LumLC)/(LumHC−Lum^LC). Graphical curves were fitted using a nonlinear regression model with a sigmoidal dose response.

IC50: 0.015 µM
Structure (SMILES): C=C1CCN(c2ccc3ncnc(Nc4ccc(Oc5ccn6ncnc6c5)c(C)c4)c3c2)C1=O [Compound 1, 1-[4-[(3-methyl-4-[[1,2,4]triazolo[1,5-a]pyridin-7-yloxy]phenyl)amino]quinazolin-6-yl]-3-methylidenepyrrolidin-2-one]

Source: US20240116921A1, “LACTAM (HETERO)[…] DERIVATIVES AS INHIBITORS OF ERBB2” (EnLiven Therapeutics, Inc., priority 2020, published 2024)
